Patent US11253460B2, “Cosmetic compositions” (Mary Kay Inc., priority 2013, dated 2022)

Tests used:
Format in all cases: cell-based
[1] = tested on: B16-F1 melanocytes; assay: B16 Pigmentation Assay
Text: B16 Pigmentation Assay: Melanogenesis is the process by which melanocytes produce melanin, a naturally produced pigment that imparts color to skin, hair, and eyes. Inhibiting melanogenesis is beneficial to prevent skin darkening and lighten dark spots associated with aging. This bioassay utilizes B16-F1 melanocytes (ATCC), an immortalized mouse melanoma cell line, to analyze the effect of compounds on melanogenesis. The endpoint of this assay is a spectrophotometric measurement of melanin production and cellular viability. B16-F1 melanocytes, can be cultivated in standard DMEM growth medium with 10% fetal bovine serum (Mediatech) at 37° C. in 10% CO2 and then treated with any one of the active ingredients, combination of ingredients, or compositions having said combinations disclosed in the specification for 6 days. Following incubation, melanin secretion was measured by absorbance at 405 nm and cellular viability was quantified.

[2] = tested on: IL-1α production by Human Epidermal Keratinocytes; assay: IL-1α Assay (ELISA, cell culture supernates)
Method: IL-1α Assay: A quantitative sandwich enzyme immunoassay technique(ELISA) was used to measure IL-1α in cell culture supernates. A monoclonal antibody that is specific for IL-1α was pre-coated onto a microplate. Standards and treatment samples are then pipetted into the wells and any IL-1α present is bound by the immobilized antibody. After washing away any unbound substances, an enzyme-linked polyclonal antibody specific for IL-1α is added to the wells. Following a wash to remove any unbound antibody-enzyme reagent, a substrate solution is added to the wells and color develops in proportion to the amount of IL-1α bound which was secreted in response to the treatment.

[3] = tested on: TNF-α production by human epidermal keratinocytes; assay: Tumor Necrosis Factor Alpha (TNF-α) Assay (ELISA)
Text: Tumor Necrosis Factor Alpha (TNF-α) Assay: The prototype ligand of the TNF superfamily, TNF-α, is a pleiotropic cytokine that plays a central role in inflammation. Increase in its expression is associated with an up regulation in pro-inflammatory activity. This bioassay can be used to analyze the effect of any one of the active ingredients, combination of ingredients, or compositions having said combinations disclosed in the specification on the production of TNF-α by human epidermal keratinocytes. The endpoint of this assay can be a spectrophotometric measurement that reflects the presence of TNF-α and cellular viability. The assay employs the quantitative sandwich enzyme immunoassay technique whereby a monoclonal antibody specific for TNF-α has been pre-coated onto a microplate. […] Following a wash to remove any unbound antibody-enzyme reagent, a substrate solution can be added to the wells and color develops in proportion to the amount of TNF-α bound in the initial step using a microplate reader for detection at 450 nm. The color development can be stopped and the intensity of the color can be measured. […] Following incubation, cell culture medium can be collected and the amount of TNF-α secretion quantified using a sandwich enzyme linked immuno-sorbant assay (ELISA) from R&D Systems (#DTA00C).

Row | Compound | Inhibits Melanogenesis with Mouse Melanocytes (B16-F1 Assay) [1] | Inhibit IL-1α Production by Human Epidermal Keratinocytes (% inhibition) [2] [%] | Inhibit TNF-α Production by Human Epidermal Keratinocytes [3] [%]
1 | NC(=O)c1cccnc1 [Niacinamide] | (−28%) |  | 
2 | Acetyl dipeptide-1 Cetyl Ester |  | 97 | 88
